From ChEMBL document CHEMBL2176907, “Identification of multiple 5-HT₄ partial agonist clinical candidates for the treatment of Alzheimer's disease” (J Med Chem, 2012) come the findings set out here.

Calls of active or inactive are those of the source. The rule behind the calls is not given here.

The target of data set [1] is T1, 5-hydroxytryptamine receptor 4 (Homo sapiens, UniProt Q13639). The experiment in a line: biochemical.
Description: Displacement of [3H]GR113808 from human 5HT4D receptor expressed in HEK293 cells after 30 mins by liquid scintillation counting
Data set [2] is described as follows: Apparent permeability from apical to basal side of RRCK cells at 2 uM after 2 hrs by transwell assay. The data set is classed as ADME, cell-based, Canis lupus familiaris, MDCKII-LE. The note with it: dog, MDCK.
A further data set deals with MDR1. The experiment in a line: in vitro. Particulars: dog, MDCK-MDR1.
For data set [3], the target named is T1, 5-hydroxytryptamine receptor 4. Put plainly: Agonist activity at human 5HT4D receptor expressed in HEK293 cells assessed as cAMP production after 30 mins by HTRF assay. It is filed as functional, cell-based.
A further data set deals with CYP2D6 (Homo sapiens, UniProt P10635). The experiment in a line: Inhibition of CYP2D6 in human liver microsomes using dextromethorphan as substrate at 3 uM. It is filed as ADME, Microsome. The note with it: probe dextromethorphan.
CYP2D6, sequence (P10635 whole entry): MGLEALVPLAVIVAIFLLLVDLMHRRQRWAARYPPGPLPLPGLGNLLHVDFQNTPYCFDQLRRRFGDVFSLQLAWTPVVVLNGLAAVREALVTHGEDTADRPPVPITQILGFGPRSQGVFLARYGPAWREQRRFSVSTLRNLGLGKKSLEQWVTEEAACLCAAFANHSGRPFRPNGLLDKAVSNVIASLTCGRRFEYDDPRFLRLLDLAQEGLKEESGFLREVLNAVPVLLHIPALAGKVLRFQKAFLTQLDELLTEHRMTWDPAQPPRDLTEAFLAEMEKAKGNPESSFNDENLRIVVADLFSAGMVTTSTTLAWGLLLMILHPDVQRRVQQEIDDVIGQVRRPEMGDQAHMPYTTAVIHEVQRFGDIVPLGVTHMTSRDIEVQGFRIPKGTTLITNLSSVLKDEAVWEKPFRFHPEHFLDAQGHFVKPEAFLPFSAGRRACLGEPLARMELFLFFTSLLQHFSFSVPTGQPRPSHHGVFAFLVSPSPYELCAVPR
Data set [4] concerns the target T1, 5-hydroxytryptamine receptor 4. The experiment in a line: Agonist activity at human 5HT4D receptor expressed in HEK293 cells assessed as cAMP production after 30 mins by HTRF assay relative to 5HT. The data set is classed as functional, cell-based.
The nature of data set [5]: Intrinsic clearance in human liver microsomes. It is filed as ADME, Microsome. Particulars: read-out: CLH.
For data set [6], the system named is Canis familiaris. The experiment in a line: Neurotoxicity in beagle dog assessed as convulsions at 30 mg/kg administered as repeated dose for 7 days measured up to 1 month. The note with it: in vivo, 168 h. Details: dose 30 mg/kg. It is filed as toxicity, organism-based, Canis lupus familiaris.
The nature of data set [7]: Oral bioavailability in rat. The data set is classed as ADME, organism-based. The note with it: in vivo.
Data set [8] can be described thus: Intrinsic clearance in dog liver microsomes. The note with it: read-out: CLH. It is filed as ADME, Canis lupus familiaris, Microsome.
The test system of data set [9] is Canis familiaris. Put plainly: Gastrointestinal toxicity in beagle dog assessed as emesis at 20 mg/kg administered as repeated dose for 7 days measured up to 1 month. It is filed as organism-based, Canis lupus familiaris. The arrangement: dose 20 mg/kg. Particulars: in vivo, 168 h.
For data set [10], the target named is T1, 5-hydroxytryptamine receptor 4.
Description: Agonist activity at human 5HT4B receptor expressed in HEK293 cells assessed as increase in cAMP production after 30 mins by HTRF assay
The next data set has as its system Plasma. The experiment in a line: Free AUC (0 to 4 hrs) in sc dosed Sprague-Dawley rat plasma by LC-MS/MS analysis. It is filed as ADME, organism-based. The note with it: in vivo.
Data set [11] addresses T1, 5-hydroxytryptamine receptor 4. The source holds these as a separate data set.
Description: Agonist activity at human 5HT4E receptor expressed in HEK293 cells assessed as increase in cAMP production after 30 mins by HTRF assay
The test system of data set [12] is Rattus norvegicus. The experiment in a line: Procognitive activity in Sprague-Dawley rat assessed as increase in acetylcholine level in prefrontal cortex at 5 mg/kg, sc after 3 hrs by brain microdialysis relative to control. The data set is classed as functional, organism-based. Details: dose 5 mg/kg.
The target of data set [13] is T1, 5-hydroxytryptamine receptor 4. The experiment in a line: biochemical. This is another data set of the same source.
Description: Displacement of [3H]GR113808 from human 5HT4A receptor expressed in HEK293 cells after 30 mins by liquid scintillation counting
The test system of data set [14] is Nucleic Acid. Put plainly: Ratio of drug uptake in CSF to free drug concentration in plasma in sc dosed Sprague-Dawley rat. It is filed as ADME, organism-based. Particulars: in vivo.
Data set [15] deals with T2, 5-hydroxytryptamine receptor 4 (Rattus norvegicus, UniProt Q62758).
T2 sequence (Q62758 whole entry): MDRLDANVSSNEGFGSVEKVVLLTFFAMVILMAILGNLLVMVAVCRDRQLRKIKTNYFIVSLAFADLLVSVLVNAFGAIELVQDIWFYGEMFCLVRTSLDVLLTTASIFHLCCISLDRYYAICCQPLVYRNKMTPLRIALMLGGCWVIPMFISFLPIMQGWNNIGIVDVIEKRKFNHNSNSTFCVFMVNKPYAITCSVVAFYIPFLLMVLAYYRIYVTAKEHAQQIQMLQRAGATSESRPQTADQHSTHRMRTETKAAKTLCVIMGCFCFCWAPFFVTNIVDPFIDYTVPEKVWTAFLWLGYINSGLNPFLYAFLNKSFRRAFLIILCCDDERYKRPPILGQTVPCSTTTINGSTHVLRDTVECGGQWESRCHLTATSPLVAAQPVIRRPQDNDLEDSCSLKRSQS
Description: Displacement of [3H]GR113808 from 5HT4 receptor in rat striatal membrane after 30 mins by liquid scintillation counting
Data set [16] in a line: Clearance in iv dosed rat. Particulars: in vivo. The data set is classed as ADME, organism-based.
Another data set concerns Brain. Put plainly: Free AUC (0 to 4 hrs) in sc dosed Sprague-Dawley rat brain by LC-MS/MS analysis. The data set is classed as ADME, organism-based. Particulars: in vivo.
Data set [17] deals with T1, 5-hydroxytryptamine receptor 4. The source holds these as a separate data set.
Description: Agonist activity at human 5HT4A receptor expressed in HEK293 cells assessed as increase in cAMP production after 30 mins by HTRF assay
Data set [18] concerns Rattus norvegicus. The experiment in a line: Gastrointestinal toxicity in male Sprague-Dawley rat assessed as reduction in body weight at 100 mg/kg administered as repeated dose for 7 days measured up to 1 month. The data set is classed as organism-based. Details: dose 100 mg/kg. Particulars: in vivo, 168 h.
The test system of data set [19] is Canis familiaris. The experiment in a line: Gastrointestinal toxicity in beagle dog assessed as decrease in food intake administered as repeated dose for 7 days measured up to 1 month. The data set is classed as organism-based, Canis lupus familiaris. Particulars: in vivo, 168 h.
Data set [20] has as its system Rattus norvegicus. The experiment in a line: Gastrointestinal toxicity in female Sprague-Dawley rat assessed as mucosal injury at 30 mg/kg administered as repeated dose for 7 days measured up to 1 month. It is filed as organism-based. The note with it: in vivo, 168 h. The arrangement: dose 30 mg/kg.
Data set [21] has as its system Rattus norvegicus. Put plainly: Gastrointestinal toxicity in Sprague-Dawley rat assessed as decrease in food intake administered as repeated dose for 7 days measured up to 1 month. The data set is classed as organism-based. The note with it: in vivo, 168 h.
Data set [22] can be described thus: AUC (0 to 4 hrs) in sc dosed Sprague-Dawley rat CSF by LC-MS/MS analysis. It is filed as ADME, organism-based. The arrangement: time < 4 hr, route subcutaneous.
The test system of data set [23] is Rattus norvegicus. The experiment in a line: Receptor occupancy of 5HT4 receptor in Sprague-Dawley rat brain at 5 mg/kg, sc up to 4 hrs. The data set is classed as functional. The note with it: route subcutaneous.
A short description of data set [24]: Ratio of free drug concentration in brain to free drug concentration in plasma in sc dosed Sprague-Dawley rat. It is filed as ADME, organism-based. Particulars: read-out: K(p,uu,brain).
The nature of data set [25]: Clearance in iv dosed dog. The data set is classed as ADME, organism-based, Canis lupus familiaris. Particulars: in vivo.
The nature of data set [26]: Oral bioavailability in dog. Particulars: in vivo. It is filed as ADME, organism-based, Canis lupus familiaris.
In data set [27] the test system is Rattus norvegicus. The experiment in a line: Displacement of [3H]SB207145 from 5HT4 receptor in sc dosed Sprague-Dawley rat striatal membrane incubated for 45 mins prior to [3H]SB207145-adminsitration measured after 15 mins. It is filed as functional, organism-based. Particulars: Striatum.
Data set [28] deals with T2, 5-hydroxytryptamine receptor 4. This is another data set of the same source.
Description: Agonist activity at rat 5HT4E receptor expressed in HEK293 cells assessed as increase in cAMP production after 30 mins by HTRF assay
Data set [29] deals with Rattus norvegicus. Put plainly: Gastrointestinal toxicity in female Sprague-Dawley rat assessed as reduction in body weight at 30 mg/kg administered as repeated dose for 7 days measured up to 1 month. The note with it: in vivo, 168 h. The arrangement: dose 30 mg/kg. The data set is classed as organism-based.
Data set [30] has as its target T2, 5-hydroxytryptamine receptor 4. This is another data set of the same source.
Description: Agonist activity at rat 5HT4S receptor expressed in HEK293 cells assessed as increase in cAMP production after 30 mins by HTRF assay
Data set [31] deals with Nucleic Acid. The experiment in a line: Ratio of drug uptake in CSF to free drug concentration in brain in sc dosed Sprague-Dawley rat. The data set is classed as ADME, organism-based. The note with it: in vivo.
For data set [32], the system named is Canis familiaris. Put plainly: Cardiotoxicity in beagle dog assessed as increase in systolic blood pressure at 0.05 mg/kg administered as repeated dose for 7 days measured up to 1 month. The data set is classed as toxicity, organism-based, Canis lupus familiaris, Artery. The arrangement: dose 0.05 mg/kg. The note with it: in vivo, 168 h.
The target of data set [33] is T2, 5-hydroxytryptamine receptor 4. The source holds these as a separate data set.
Description: Agonist activity at rat 5HT4L receptor expressed in HEK293 cells assessed as increase in cAMP production after 30 mins by HTRF assay
Data set [34] concerns the target T1, 5-hydroxytryptamine receptor 4. Put plainly: biochemical. This is another data set of the same source.
Description: Displacement of [3H]GR113808 from human 5HT4B receptor expressed in HEK293 cells after 30 mins by liquid scintillation counting
Data set [35] is described as follows: Intrinsic clearance in rat liver microsomes. It is filed as ADME, Microsome. The note with it: read-out: CLH.
Data set [36] deals with T1, 5-hydroxytryptamine receptor 4. Put plainly: biochemical. This is another data set of the same source.
Description: Displacement of [3H]GR113808 from human 5HT4E receptor expressed in CHO cells after 30 mins by liquid scintillation counting
Data set [37] concerns Rattus norvegicus. Put plainly: Gastrointestinal toxicity in male Sprague-Dawley rat assessed as mucosal injury at 100 mg/kg administered as repeated dose for 7 days measured up to 1 month. Particulars: in vivo, 168 h. The arrangement: dose 100 mg/kg. It is filed as organism-based.
Data set [38] concerns the target 5-hydroxytryptamine receptor 4 (Rattus norvegicus) (UniProt Q62758). The experiment in a line: Agonist activity at 5HT4 receptor in rat oesophagus assessed as reversal of carbamylcholine-induced contraction at 10 uM incubated at 7 mins post carbamylcholine-challenge measured after 30 mins relative to 5HT. It is filed as functional.

T1 sequence (Q13639 whole entry): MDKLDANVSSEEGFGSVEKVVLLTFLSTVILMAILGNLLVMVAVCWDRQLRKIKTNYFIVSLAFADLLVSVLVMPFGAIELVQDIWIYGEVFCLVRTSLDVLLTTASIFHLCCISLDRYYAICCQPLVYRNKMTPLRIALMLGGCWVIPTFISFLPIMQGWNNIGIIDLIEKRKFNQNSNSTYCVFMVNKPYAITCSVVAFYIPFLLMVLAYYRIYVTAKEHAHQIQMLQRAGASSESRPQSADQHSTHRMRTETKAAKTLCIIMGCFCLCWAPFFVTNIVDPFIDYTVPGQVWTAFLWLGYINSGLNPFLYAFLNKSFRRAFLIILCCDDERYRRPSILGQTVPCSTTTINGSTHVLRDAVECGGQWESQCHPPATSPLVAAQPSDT
5-hydroxytryptamine receptor 4 (Rattus norvegicus), sequence (Q62758 whole entry): as the sequence (Q62758 whole entry) above
Description for MDR1: Efflux ratio of permeability from basal to apical to apical to basal side of MDCK cells expressing MDR1 at 2 uM after 5 hrs by transwell assay

In the case of `CC(C)(O)COc1cccc2onc(OCC3CCN(CC4(O)CCOCC4)CC3)c12`, the Ki in data set [1] is 3.6 nM. Further, the Papp A→B at 2 h, 2 µM in data set [2] was found to be 35 ×10⁻⁶ cm/s. Also, the efflux ratio at 5 h, 2 µM in the data set with MDR1 is 1.6. For the same molecule, the concentration giving a half-maximal response (EC50) in data set [3] came to 1.7 nM. On CYP2D6, this molecule showed an inhibition at 3 µM of 21%. In addition, the Emax in data set [4] came out at 50%. For the same molecule, the CLint scaled in data set [5] stood at 38 mL/min/kg.
Consider `CC1(C)C(=O)N(C(=O)NCC2CCN(CC3(O)CCOCC3)CC2)c2cc(F)ccc21` [PF-03382792], for which the Activity result with Canis familiaris [6], in the data set with Canis familiaris [9], in the data set on Rattus norvegicus [18], in the data set with Canis familiaris [19], in the data set on Rattus norvegicus [20] and in the data set on Rattus norvegicus [21] was “Toxic” each time. Also, the Activity entry in the data set with Rattus norvegicus [27] was “Dose-dependent effect”; in the data set on Rattus norvegicus [29], “Toxic”; in the data set on Canis familiaris [32], “Toxic”; in the data set with Rattus norvegicus [37], “Toxic”. Moreover, the bioavailability in data set [7] was determined as 100%; in [26] it was 51%. The CLint scaled in [8] is 35.4 mL/min/kg; in [35], 42.7 mL/min/kg; in data set [5] it was 25.4 mL/min/kg. In addition, the Ki was determined as 2.7 nM in [1]; 4.6 nM in data set [13]; 3.9 nM in data set [15]; 6.8 nM in data set [34]; 6.3 nM in data set [36]. The apical-to-basolateral permeability (Papp A→B) at 2 h, 2 µM in data set [2] was over 27 ×10⁻⁶ cm/s. Besides, the efflux ratio at 5 h, 2 µM in the data set on MDR1 was found to be 1.37. The concentration giving a half-maximal response (EC50) in data set [3] turned out to be 0.9 nM; in data set [10] it was 1.3 nM; in [11], 1.2 nM; in data set [17] it was 0.8 nM; in data set [28], 2.15 nM; in data set [30], 1.15 nM. This molecule gave an EC50 in data set [33] of 1.52 nM. Besides, the figures for the fAUC with Plasma and in the data set on Brain were 1.669 µM·h and 2.922 µM·h, respectively. In addition, the result in the data set with Rattus norvegicus [12] was Active. Moreover, the Ratio with Nucleic Acid [14] is recorded as 0.8; in the data set on Nucleic Acid [31], 2.1. Also, the results for the clearance in [16] and in data set [25] were 104 mL/min/kg and 12.4 mL/min/kg, respectively. In data set [22], the area under the curve AUC(0-t) at 4 h is 1.38 µM·h. For the same molecule, the Occ in the data set on Rattus norvegicus [23] is over 90%. For the same molecule, the Kp uu in data set [24] worked out at 1.8. For the same molecule, the maximal effect (Emax) in data set [4] was 35%.
Regarding `COCCCN1CCC(NC(=O)c2cc(Cl)c(N)c3c2OCC3)CC1`, in [38], the outcome was Active.
At CYP2D6, `CCCCN1CCC(COc2noc3cccc(OCC4CCC4)c23)CC1` yielded an inhibition at 3 µM of 93%.
